In patent US9233961B2, “Compounds and compositions for the treatment of parasitic diseases” (Novartis AG, priority 2013, dated 2016):
Like-named read-outs stand apart in the source and are kept apart here.

Experiments:
[1] = system: Leishmania donovani axenic amastigote parasites; test: Leishmania donovani axenic amastigote proliferation assay; format: cell-based; conditions: axenic amastigotes in vitro, read-out: L. donovani amastigotes EC50
Outline: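 EC50 values come from CellTiter-Glo luminescence after 2-day compound exposure of axenic amastigotes (9600 per well) at 37 °C, 5% CO2. Medium: RPMI 1640, 20% heat-inactivated FBS, folic acid, adenosine, D-glucose, 25 mM MES, adjusted to pH 5.5.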

[2] = system: L. donovani HU3 strain in mouse peritoneal macrophages; test: Assay for proliferation of Leishmania parasites in mouse peritoneal macrophages; format: cell-based, Leishmania donovani; conditions: Leishmania donovani, Peritoneal macrophage, read-out: L. donavani Macrophage EC50
Outline: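 EC50 derives from counting SYBR Green-stained parasite nuclei by high-content imaging after 5 days' compound exposure. Host cells were uninfected BALB/c peritoneal macrophages, infected for 24 h before dosing with spleen-derived L. donovani HU3 parasites from mice infected 9–11 weeks.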

[3] = system: Trypanosoma cruzi amastigotes (Tulahuen strain) cultured in 3T3 fibroblast cells; test: Assay for proliferation of kinetoplastid parasite Trypanosoma cruzi; format: cell-based; conditions: 144 h, 6 day incubation
Text: Assay for Proliferation of Kinetoplastid Parasite Trypanosoma cruzi.
Compounds of the invention can be assayed to measure their capacity to inhibit proliferation of kinetoplastid parasite Trypanosoma cruzi. The screening procedure is for identifying compounds with inhibitor activity against Trypanosoma cruzi amastigotes cultured in 3T3 fibroblast cells. The assay is done using the mammalian stage (amastigotes) of T. cruzi that replicates in the intracellular space of host cells. The host cells are initially infected with the culture-derived trypomastigotes that rapidly invade and then divide as amastigotes. The protocol uses the Tulahuen strain of T. cruzi that has been engineered to express the E. coli beta-galactosidase gene (Lac-Z) (Antimicr. Agents Chemoth. 40:2592, 1996). This allows for a colorimetric readout by using the substrate CPRG and an absorbance plate reader.
3T3 fibroblast cells are re-suspended in RPMI-1640 medium without phenol red medium supplemented with 10% FBS (heat inactivated), 100 μg/ml penicillin, and 100 μg/ml streptomycin. Forty μL of suspension (1,000 cells) is dispensed into 384-well plates and incubated overnight at 37° C. temperature and in atmosphere containing 5% CO2. The following day, 100 nL of compounds of the invention in DMSO are added to plate wells containing 3T3 cells. At the same time control compounds (benznidazole and nifurtimox) and DMSO are added to plates to serve as the positive and negative controls, respectively. After that, 10 μL of media containing 10,000 T. cruzi trypomastigotes are added to each plate well and plates are placed back into incubators. After 6 day incubation, 10 μL of reagent solution (0.6 mM CPRG, 0.6% NP-40 in PBS) is added to plates and incubated at room temperature for 2 hours. Absorbance is then measured on SpectraMax Gemini […] to determine relative number of T. cruzi cells present in each plate well. The percentage inhibition of 50%, EC50, is calculated for each compound. […] Typically, the EC50 is 10 μM or less.

[4] = system: Trypanosoma brucei Lister 427 strain bloodstream form; test: Assay for proliferation of kinetoplastid parasite Trypanosoma brucei; format: cell-based
Outline: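 Bloodstream-form T. brucei Lister 427 in HMI-9 medium was exposed to compound (DMSO vehicle) for 48 hours at 37° C, 5% CO2. Parasite growth was read as ATP by CellTiter-Glo luminescence, with EC50 calculated from percent inhibition.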

[5] = Tulahuen amastigotes in 3T3 fibroblast cells, read-out: T cruzi EC50
[6] = Lister 427 bloodstream form, 48 hours, read-out: T. brucei EC50
[7] = T. brucei Lister 427, 48 hours, Cell Titer Glo, read-out: EC50
[8] = TULAHUEN, T. cruzi in 3T3 fibroblast cells, CPRG absorbance, read-out: EC50

| Structure (SMILES) | EC50 [1] [µM] | EC50 [2] [µM] | EC50 [3, 5] [µM] | EC50 [4, 6] [µM] | EC50 [4, 7] [µM] | EC50 [3, 8] [µM] |
| --- | --- | --- | --- | --- | --- | --- |
| NC(=O)c1ccc(-c2cnc3nc(-c4cc(NC(=O)c5ccco5)ccc4Cl)[nH]c3c2)cc1 [Compound 19, N-{3-[6-(4-carbamoylphenyl)-1H-imidazo[4,5-b]pyridin-2-yl]-4-chlorophenyl}furan-2-carboxamide] | 0.165 | > 50 | > 20 | 0.0058 | 0.006 | – |
| COc1ccc(-c2cnc3nc(-c4cc(NC(=O)c5ccco5)ccc4Cl)[nH]c3c2)cn1 [Compound 29, N-{4-chloro-3-[6-(6-methoxypyridin-3-yl)-1H-imidazo [4,5-b]pyridin-2-yl]phenyl}furan-2-carboxamide] | 0.234 | 2.29 | 0.071 | 0.0235 | 0.024 | – |
| O=C(Nc1ccc(Cl)c(-c2nc3ncc(-c4ccc(OCc5ccccc5)cc4)cc3[nH]2)c1)c1ccco1 [Compound 47] | 0.46 | > 7.2 | 0.104 | 0.04 | – | – |
| O=C(Nc1ccc(Cl)c(-c2nc3ncc(-c4cccnc4)cc3[nH]2)c1)c1ccco1 [Compound 50] | 0.134 | 1.64 | 0.053 | 0.00262 | – | – |
| COCCOc1ccc(-c2cnc3nc(-c4cc(NC(=O)c5ccco5)ccc4Cl)[nH]c3c2)c(F)n1 [Compound 52] | 0.188 | > 14.5 | 0.068 | 0.036 | – | – |
| COC(=O)Nc1ccc(-c2cnc3nc(-c4cc(NC(=O)c5ccco5)ccc4Cl)[nH]c3c2)cc1 [Compound 58, methyl N-(4-{2-[2-chloro-5-(furan-2-amido)phenyl]-1H-imidazo[4,5-b]pyridin-6-yl}phenyl)carbamate] | 0.051 | 0.284 | 0.0193 | 0.0051 | 0.005 | – |
| CC(C)(C)OC(=O)N1CC=C(c2cnc3nc(-c4cc(NC(=O)c5ccco5)ccc4Cl)[nH]c3c2)CC1 [Compound 63] | 0.56 | 1.6 | 0.108 | 0.0217 | – | – |
| O=C(Nc1ccc(Cl)c(-c2nc3ncc(C4=CCNCC4)cc3[nH]2)c1)c1ccco1 [Compound 70] | 6 | 20.8 | 0.49 | 0.174 | – | – |
| Cc1cnc2nc(-c3cc(NC(=O)c4ccccn4)ccc3Cl)[nH]c2c1 [Compound 83] | 7 | 23.3 | 1.3 | 0.93 | – | – |
| Cc1cnc2nc(-c3cc(NC(=O)c4ccc(N5CCOCC5)cn4)ccc3Cl)[nH]c2c1 [Compound 84] | 6.7 | > 50 | 2.3 | 2.13 | – | – |
| Cc1cnc2nc(-c3cc(NC(=O)Cc4cccc(Cl)c4)ccc3Cl)[nH]c2c1 [Compound 85] | > 25 | 21.3 | > 11.5 | 9.3 | – | – |
| Cc1cnc2nc(-c3cc(NC(=O)c4ccc(Cl)o4)ccc3Cl)[nH]c2c1 [Compound 86] | 0.84 | 3.09 | 0.069 | 0.183 | – | – |
| Cc1cnc2nc(-c3cc(NC(=O)c4cccc(Cl)c4)ccc3Cl)[nH]c2c1 [Compound 89] | 3.7 | 9.2 | 0.175 | 0.26 | – | – |
| Cc1cnc2nc(-c3cc(NC(=O)c4cc(Cl)ccc4Cl)ccc3Cl)[nH]c2c1 [Compound 98] | 16.7 | 23.5 | 1.18 | 2.91 | – | – |
| Cc1cnc2nc(-c3cc(NC(=O)c4cccc(N5CCCCC5)c4)ccc3Cl)[nH]c2c1 [Compound 99] | > 25 | > 50 | 5.5 | 6.3 | – | – |
| Cc1cnc2nc(-c3cc(NC(=O)c4ccc[nH]4)ccc3Cl)[nH]c2c1 [Compound 100] | 6.3 | 6.4 | 2.17 | 1.42 | – | – |
| Cc1cnc2nc(-c3cc(NC(=O)c4ccc(C)[nH]4)ccc3Cl)[nH]c2c1 [Compound 124] | > 25 | 13.8 | > 14.3 | > 25 | – | – |
| Cc1cnc2nc(-c3cc(NC(=O)Cc4ccc(F)cc4)ccc3Cl)[nH]c2c1 [Compound 125] | > 25 | 8.6 | 9.6 | 10 | – | – |

| Structure (SMILES) | EC50 [1] [µM] | EC50 [2] [µM] | EC50 [3, 5] [µM] | EC50 [4, 6] [µM] | EC50 [4, 7] [µM] | EC50 [3, 8] [µM] |
| --- | --- | --- | --- | --- | --- | --- |
| Cc1cnc2nc(-c3cc(NC(=O)c4ccc(C)o4)ccc3Cl)[nH]c2c1 [Compound 126] | 1.6 | 1.63 | 0.148 | 0.303 | – | – |
| Cc1cnc2nc(-c3cc(NC(=O)c4cnc[nH]4)ccc3Cl)[nH]c2c1 [Compound 128] | > 25 | > 50 | > 20 | > 25 | – | – |
| Cc1cnc2nc(-c3cc(NC(=O)C4CCCCO4)ccc3Cl)[nH]c2c1 (stereo not drawn) [Compound 131] | 22.1 | > 50 | 6.8 | 5.1 | – | – |
| COc1cccc(C(=O)Nc2ccc(Cl)c(-c3nc4ncc(C)cc4[nH]3)c2)c1 [Compound 134] | 21.4 | 13.9 | 2.59 | 0.89 | – | – |
| Cc1cnc2nc(-c3cc(NC(=O)c4cnc(Cl)cn4)ccc3Cl)[nH]c2c1 [Compound 135] | > 25 | > 25.9 | > 20 | > 1.51 | – | – |
| Cc1cnc2nc(-c3cc(NC(=O)C4CCCO4)ccc3Cl)[nH]c2c1 (stereo not drawn) [Compound 138] | > 25 | > 50 | > 20 | > 25 | – | – |
| COc1ccc(C(=O)Nc2ccc(Cl)c(-c3nc4ncc(C)cc4[nH]3)c2)c(OC)c1 [Compound 147] | > 25 | 8.8 | 2.41 | 3.6 | – | – |
| Cc1cnc2nc(-c3cc(NC(=O)Cc4ccncc4)ccc3Cl)[nH]c2c1 [Compound 148] | > 25 | > 50 | > 20 | > 24.6 | – | – |
| Cc1cnc2nc(-c3cc(NC(=O)c4ccccc4Cl)ccc3Cl)[nH]c2c1 [Compound 149] | > 25 | 9.2 | 0.55 | 10.9 | – | – |
| Cc1cnc2nc(-c3cc(NC(=O)c4ccccc4N(C)C)ccc3Cl)[nH]c2c1 [Compound 150] | > 25 | 22.8 | 8.9 | 12.1 | – | – |
| Cc1cnc2nc(-c3cc(NC(=O)c4cccn4C)ccc3Cl)[nH]c2c1 [Compound 151] | 17.1 | 19.5 | 3.7 | 1.83 | – | – |
| Cc1cnc2nc(-c3cc(NC(=O)c4ccc(Cl)s4)ccc3Cl)[nH]c2c1 [Compound 152] | > 25 | 4.5 | > 11.5 | 5.6 | – | – |
| Cc1cnc2nc(-c3cc(NC(=O)C4CCCCN4)ccc3Cl)[nH]c2c1 (stereo not drawn) [Compound 171] | > 25 | > 50 | 7.5 | > 7.5 | – | – |
| Cc1cnc2nc(-c3cc(NC(=O)c4nccnc4O)ccc3Cl)[nH]c2c1 [Compound 174] | > 25 | > 50 | > 20 | > 25 | – | – |
| Cc1cnc2nc(-c3cc(NC(=O)c4ccc(S(C)(=O)=O)s4)ccc3Cl)[nH]c2c1 [Compound 175, N-(4-chloro-3-{6-methyl-1H-imidazo [4,5-b]pyridin-2-yl}phenyl)-5-methanesulfonylthiophene-2-carboxamide] | > 25 | > 28.9 | 0.067 | > 20.5 | – | 0.067 |
| Cc1cnc2nc(-c3cc(NC(=O)c4ccc(F)s4)ccc3Cl)[nH]c2c1 [Compound 185] | 11.2 | > 30.7 | 0.96 | 1.77 | – | – |
| CN(C(=O)OC(C)(C)C)c1ccc(-c2cnc3nc(-c4cc(NC(=O)N5CCCC5)ccc4Cl)[nH]c3c2)cc1 [Compound 332, tert-butyl N-[4-(2-{2-chloro-5-[(pyrrolidin-1-yl)carbonylamino]phenyl}-1H-imidazo[4,5-b]pyridin-6-yl)phenyl]-N-methylcarbamate] | – | – | – | – | – | 0.006 |
